According to PMC3474771, “Evaluation of 14 Organic Solvents and Carriers for Screening Applications in Zebrafish Embryos and Larvae” (PLoS ONE, 2012):
Where two headings read alike, the source gives them in different places.

Test system: zebrafish embryos and larvae
Settings: for Maximum-tolerated concentration (MTC): highest concentration with no phenotypic abnormalities, followed to 9 dpf; for Phenotypic effects above MTC after 24 hours (average penetrance at least 50%): at the concentration in parentheses; for MTC / tolerated concentration: over all or most developmental stages analyzed, 24-hour exposure
Protocol: Zebrafish embryos of the AB wild-type strain (originally obtained from the Zebrafish International Resource Center, Eugene, Oregon, USA) were raised at 28°C. Zebrafish husbandry, embryo collection, and embryo and larva maintenance were performed as described, [21]. Toxicity assays were standardly performed in 24-well microtiter plates (wrapped with Parafilm to limit solvent evaporation) using 10 embryos per well in 1 ml of 0.3× Danieau's medium (17 mM NaCl, 2 mM KCl, 0.12 mM MgSO4, 1.8 mM Ca(NO3)2 and 1.5 mM HEPES, pH 7.6). Each experiment was repeated 3 times for a total of 30 embryos or larvae analyzed per solvent per developmental staged tested. Data were only recorded for experiments in which the percentage of normal embryos or larvae in the control group was at least 90%. […] In determining the maximum tolerated concentration (MTC) for each solvent and carrier, all post-exposure embryos and larvae were allowed to develop in larva medium to 9 dpf, so as to detect any deleterious effects appearing after this 24-hour window. Solvents and carriers were obtained from the following suppliers: acetone (Chemlab, Zedelgem, Belgium), acetonitrile (Acros Organics, Geel, Belgium), albumin (BSA, Sigma-Aldrich, Bornem, Belgium), butanone (Riedel-de Haën, Seelze, Germany), cyclodextrin (2- hydroxypropyl-beta-cyclodextrin, Sigma-Aldrich), dimethyl formamide (Acros), DMSO (Agros), ethanol (Fisher Scientific, Doornik, Belgium), glycerol (Acros), isopropanol (Chemlab), methanol (Chemlab), polyethylene glycol-400 (Fluka, Bornem, Belgium), propylene glycol (Certa, Eigenbrakel, Belgium), solketal (Merck, Overijse, Belgium). Statistical analyses were done using chi-square in Microsoft Excel.
Twelve solvents and 2 carriers – chosen based solely on their potential utility for the solubilization and delivery of a structurally diverse range of small molecules – were analyzed for their effects on zebrafish embryos and larvae. The solvents included acetone, acetonitrile, butanone, dimethyl formamide, DMSO, ethanol, glycerol, isopropanol, methanol, polyethylene glycol (PEG-400), propylene glycol, and solketal, and the carriers included albumin (BSA) and cyclodextrin (2-hydroxypropyl-beta-cyclodextrin, or HPBCD). […] For this initial study, the effects of a 24-hour exposure to each solvent and carrier was analyzed using embryos and larvae at the following developmental stages: 2–4 cell, 4 hours-post fertilization (hpf), and 1, 2, 3, 4, and 7 days post-fertilization (dpf).

[1] = exposure for 24 hours beginning at 1 dpf
[2] = exposure for 24 hours beginning at 2 dpf
[3] = exposure for 24 hours beginning at 2–4 cell stage
[4] = exposure for 24 hours beginning at 3 dpf
[5] = exposure for 24 hours beginning at 4 dpf
[6] = exposure for 24 hours beginning at 4 hpf
[7] = exposure for 24 hours beginning at 5 dpf
[8] = exposure for 24 hours beginning at 7 dpf
[9] = 24 hours exposure from 2–4 cell stage

CCC(C)=O [Butanone (MEK), 2-butanone]
Lowest concentration at which an average penetrance of at least 50% was observed for the phenotypic effects (24 hours exposure from 1 dpf): 2%
Lowest concentration at which an average penetrance of at least 50% was observed for the phenotypic effects (24 hours exposure from 2 dpf): 2.5%
Lowest concentration at which an average penetrance of at least 50% was observed for the phenotypic effects (24 hours exposure from 3 dpf): 2%
Maximum-tolerated concentration (MTC) [1]: 1%
Maximum-tolerated concentration (MTC) [2]: 1.5%
Maximum-tolerated concentration (MTC) [3]: 0.5%
Maximum-tolerated concentration (MTC) (exposure for 24 hours beginning at 2–4 cell stage, listed as butanone): ≤ 0.5%
Maximum-tolerated concentration (MTC) [4]: 1.5%
Maximum-tolerated concentration (MTC) [5]: 1.5%
Maximum-tolerated concentration (MTC) [6]: 1%
Maximum-tolerated concentration (MTC) [7]: <0.5%
Maximum-tolerated concentration (MTC) (exposure for 24 hours beginning at 5 dpf, listed as butanone): ≤ 0.5%
Maximum-tolerated concentration (MTC) [8]: 0.5%
Maximum-tolerated concentration (MTC) (exposure for 24 hours beginning at 7 dpf, listed as butanone): ≤ 0.5%
Phenotypic effects above MTC after 24 hours (average penetrance at least 50%) (exposure from 1 dpf): IC MC PE
Phenotypic effects above MTC after 24 hours (average penetrance at least 50%) (exposure from 2 dpf): DD HJ
Phenotypic effects above MTC after 24 hours (average penetrance at least 50%) (exposure from 3 dpf): HJ SB

CC(O)COC[C@H]1O[C@@H]2O[C@H]3[C@H](O)[C@@H](O)[C@@H](O[C@H]4[C@H](O)[C@@H](O)[C@@H](O[C@H]5[C@H](O)[C@@H](O)[C@@H](O[C@H]6[C@H](O)[C@@H](O)[C@@H](O[C@H]7[C@H](O)[C@@H](O)[C@@H](O[C@H]8[C@H](O)[C@@H](O)[C@@H](O[C@H]1[C@H](O)[C@H]2O)O[C@@H]8COCC(C)O)O[C@@H]7COCC(C)O)O[C@@H]6COCC(C)O)O[C@@H]5COCC(C)O)O[C@@H]4COCC(C)O)O[C@@H]3COCC(C)O (stereo partly drawn) [Cyclodextrin (HPBCD), 2-hydroxypropyl-beta-cyclodextrin]
Maximum-tolerated concentration (MTC) [1]: 1%
Maximum-tolerated concentration (MTC) [2]: 1.5%
Maximum-tolerated concentration (MTC) [3]: 1%
Maximum-tolerated concentration (MTC) [4]: 1.5%
Maximum-tolerated concentration (MTC) [5]: 1%
Maximum-tolerated concentration (MTC) [6]: 0.5%
Maximum-tolerated concentration (MTC) [7]: 1.5%
Maximum-tolerated concentration (MTC) [8]: 1%
MTC / tolerated concentration: 1%

CN(C)C=O [Dimethyl formamide (DMF), Dimethyl formamide]
Lowest concentration at which an average penetrance of at least 50% was observed for the phenotypic effects (24 hours exposure from 1 dpf): 0.5%
Lowest concentration at which an average penetrance of at least 50% was observed for the phenotypic effects (24 hours exposure from 2 dpf): 1%
Lowest concentration at which an average penetrance of at least 50% was observed for the phenotypic effects [9]: 1%
Lowest concentration at which an average penetrance of at least 50% was observed for the phenotypic effects (24 hours exposure from 3 dpf): 1%
Lowest concentration at which an average penetrance of at least 50% was observed for the phenotypic effects (24 hours exposure from 4 dpf): 1%
Lowest concentration at which an average penetrance of at least 50% was observed for the phenotypic effects (24 hours exposure from 4 hpf): 1%
Lowest concentration at which an average penetrance of at least 50% was observed for the phenotypic effects (24 hours exposure from 5 dpf): 1.5%
Lowest concentration at which an average penetrance of at least 50% was observed for the phenotypic effects (24 hours exposure from 7 dpf): 0.5%
Maximum-tolerated concentration (MTC) [1]: <0.5%
Maximum-tolerated concentration (MTC) [2]: 0.5%
Maximum-tolerated concentration (MTC) [3]: 0.5%
Maximum-tolerated concentration (MTC) [4]: 0.5%
Maximum-tolerated concentration (MTC) [5]: 0.5%
Maximum-tolerated concentration (MTC) [6]: <0.5%
Maximum-tolerated concentration (MTC) [7]: 0.5%
Maximum-tolerated concentration (MTC) [8]: <0.5%
Phenotypic effects above MTC after 24 hours (average penetrance at least 50%) (exposure from 1 dpf): AP BH IC IM NB PE
Phenotypic effects above MTC after 24 hours (average penetrance at least 50%) (exposure from 2 dpf): AP HJ PE
Phenotypic effects above MTC after 24 hours (average penetrance at least 50%) (exposure from 3 dpf): HJ IC PE
Phenotypic effects above MTC after 24 hours (average penetrance at least 50%) (exposure from 4 dpf): AP LP
Phenotypic effects above MTC after 24 hours (average penetrance at least 50%) (exposure from 4 hpf): AP BC BS CF PE
Phenotypic effects above MTC after 24 hours (average penetrance at least 50%) (exposure from 5 dpf): IM LP PE SB
Phenotypic effects above MTC after 24 hours (average penetrance at least 50%) (exposure from 7 dpf): HO LP
MTC / tolerated concentration: ≤ 0.5%

CCO [Ethanol, ethanol]
Lowest concentration at which an average penetrance of at least 50% was observed for the phenotypic effects (24 hours exposure from 1 dpf): 2%
Lowest concentration at which an average penetrance of at least 50% was observed for the phenotypic effects (24 hours exposure from 2 dpf): 2%
Lowest concentration at which an average penetrance of at least 50% was observed for the phenotypic effects [9]: 1.5%
Lowest concentration at which an average penetrance of at least 50% was observed for the phenotypic effects (24 hours exposure from 3 dpf): 2%
Lowest concentration at which an average penetrance of at least 50% was observed for the phenotypic effects (24 hours exposure from 4 dpf): 2%
Lowest concentration at which an average penetrance of at least 50% was observed for the phenotypic effects (24 hours exposure from 4 hpf): 1.5%
Lowest concentration at which an average penetrance of at least 50% was observed for the phenotypic effects (24 hours exposure from 5 dpf): 2.5%
Lowest concentration at which an average penetrance of at least 50% was observed for the phenotypic effects (24 hours exposure from 7 dpf): 1.5%
Maximum-tolerated concentration (MTC) [1]: 1%
Maximum-tolerated concentration (MTC) [2]: 1.5%
Maximum-tolerated concentration (MTC) [3]: 1%
Maximum-tolerated concentration (MTC) [4]: 1%
Maximum-tolerated concentration (MTC) [5]: 1.5%
Maximum-tolerated concentration (MTC) [6]: 0.5%
Maximum-tolerated concentration (MTC) [7]: 0.5%
Maximum-tolerated concentration (MTC) [8]: 1%

OCC(O)CO [Glycerol]
Lowest concentration at which an average penetrance of at least 50% was observed for the phenotypic effects (24 hours exposure from 1 dpf): 2%
Lowest concentration at which an average penetrance of at least 50% was observed for the phenotypic effects (24 hours exposure from 2 dpf): 2%
Lowest concentration at which an average penetrance of at least 50% was observed for the phenotypic effects [9]: 2.5%
Lowest concentration at which an average penetrance of at least 50% was observed for the phenotypic effects (24 hours exposure from 3 dpf): 2%
Lowest concentration at which an average penetrance of at least 50% was observed for the phenotypic effects (24 hours exposure from 4 hpf): 2%
Maximum-tolerated concentration (MTC) [1]: 1.5%
Maximum-tolerated concentration (MTC) [2]: 1.5%
Maximum-tolerated concentration (MTC) [3]: 1.5%
Maximum-tolerated concentration (MTC) [4]: 1.5%
Maximum-tolerated concentration (MTC) [5]: 2%
Maximum-tolerated concentration (MTC) [6]: 1.5%
Maximum-tolerated concentration (MTC) [7]: >2.5%
Maximum-tolerated concentration (MTC) (exposure for 24 hours beginning at 5 dpf, listed as glycerol): ≥ 2.5%
Maximum-tolerated concentration (MTC) [8]: >2.5%
Maximum-tolerated concentration (MTC) (exposure for 24 hours beginning at 7 dpf, listed as glycerol): ≥ 2.5%

CC(C)O [Isopropanol, isopropanol]
Lowest concentration at which an average penetrance of at least 50% was observed for the phenotypic effects (24 hours exposure from 1 dpf): 1%
Lowest concentration at which an average penetrance of at least 50% was observed for the phenotypic effects (24 hours exposure from 2 dpf): 2%
Lowest concentration at which an average penetrance of at least 50% was observed for the phenotypic effects (24 hours exposure from 3 dpf): 2%
Lowest concentration at which an average penetrance of at least 50% was observed for the phenotypic effects (24 hours exposure from 4 hpf): 1.5%
Lowest concentration at which an average penetrance of at least 50% was observed for the phenotypic effects (24 hours exposure from 7 dpf): 1%
Maximum-tolerated concentration (MTC) [1]: 0.5%
Maximum-tolerated concentration (MTC) [2]: 1%
Maximum-tolerated concentration (MTC) [3]: 0.5%
Maximum-tolerated concentration (MTC) [4]: 1.5%
Maximum-tolerated concentration (MTC) [5]: 0.5%
Maximum-tolerated concentration (MTC) [6]: 1%
Maximum-tolerated concentration (MTC) [7]: <0.5%
Maximum-tolerated concentration (MTC) [8]: 0.5%
Phenotypic effects above MTC after 24 hours (average penetrance at least 50%) (exposure from 1 dpf): AP IC
Phenotypic effects above MTC after 24 hours (average penetrance at least 50%) (exposure from 2 dpf): IC LP
Phenotypic effects above MTC after 24 hours (average penetrance at least 50%) (exposure from 3 dpf): BC IC IM HJ PE
Phenotypic effects above MTC after 24 hours (average penetrance at least 50%) (exposure from 7 dpf): IC LP NB PE
